Measured values as given in patent publication US5348970A, “Antifungal compound and compositions containing the compound” (Merck & Co., Inc., priority 1993, dated 1994).
In brackets after ≈: the same amount, converted by molar mass.

Tests used:
Format in all cases: cell-based
bacterial strains = experiment: Antibacterial activity in vitro (general statement); conditions: qualitative statement
Procedure: (§1) The antibacterial activity of the compound was determined using broth dilution assays. The compound was dissolved in DMSO at 10 mg/mL and serially diluted in Luria Broth (LB), composed of […]. The Enterococcal strains were grown in Brain Heart Infusion broth; Staphylococcus aureus (MB2865) was grown in LB; S. aureus (MB108) and (MB2949) and Proteus vulgaris were grown in Nutrient Broth with 2% yeast extract. All bacterial strains were incubated overnight at 37° C. The bacterial cells were diluted 10^-4 in LB to give approximately 5×10^4 to 1×10^5 colony forming units per milliliter. 180 μL of inoculated LB was added to the wells of a 96 well microtiter dish containing 20 μL of diluted inhibitor samples. The final concentration of the compound in the wells ranged from 500-0.00025 μg/ml. The microtiter dishes were incubated for 24 hours at 28° C. and visually inspected for growth. The minimum inhibitory concentration (MIC) was recorded as the lowest concentration of compound to prevent visible growth.

fungi = experiment: Antifungal activity in vitro (general statement); conditions: qualitative statement
Procedure: (§2) Minimum Inhibitory Concentrations The antifungal activity of the compound of formula 1 was determined using broth dilution assays. The compound was dissolved in DMSO at 3.7 mg/mL and serially diluted in 1% aqueous DMSO. The yeast strains including Candida species and Cryptococcal species were grown to exponential phase in a complex medium composed of 1% peptone, 0.5% yeast extract and 0.05% dextrose (CM) at 29° C. The yeast cells were diluted in CM to A600 =0.004 U/mL which was previously determined to be equal to 3000 colony forming units per milliliter. 180 uL of inoculated CM was added to the wells of a 96 well microtiter dish containing 20 μL of diluted inhibitor samples. The final concentration of the compound in the wells ranged from 37-0.01 μg/ml. The microtiter dishes were incubated for 18 hours at 29° C. and visually inspected for growth. The minimum inhibitory concentration (MIC) was recorded as the lowest concentration of compound to prevent visible growth.
(§3) The same procedure was used to determine the MIC of the compound against the filamentous fungi, Aspergillus fumigatus MF 5668, except a spore inoculum was prepared. Spores of A. fumigatus were obtained by washing a well sporulated slant of the organism growing on potato dextrose agar with 0.05% tween 80 solution. […]

Entercoccus faecium = experiment: Broth dilution MIC, antibacterial activity; conditions: 24 h
Procedure: as §1

Proteus vulgaris = experiment: Broth dilution MIC, antibacterial activity; conditions: strain MB 838, 24 hours, 28° C.
Procedure: as §1

Staphylococcus aureus = experiment: Broth dilution MIC, antibacterial activity; conditions: 24 h
Procedure: as §1

Aspergillus fumigatus = experiment: Broth dilution MIC, antifungal activity (spore inoculum); conditions: 18 h, strain MF 5668
Procedure: as §2, §3

Candida krusei = experiment: Broth dilution MIC, antifungal activity; conditions: Pichia kudriavzevii; strain MY 2168; 18 hours, 29° C.
Procedure: as §2

Cryptococcus neoformans = experiment: Broth dilution MIC, antifungal activity; conditions: 18 h
Procedure: as §2

Candida tropicalis = experiment: Broth dilution MIC, antifungal activity; conditions: strain MY 2167, 18 hours, 29° C.
Procedure: as §2

Candida albicans = experiment: Broth dilution MIC, antifungal activity; conditions: strain MY 1055, 18 hours, 29° C.
Procedure: as §2

Candida parapsilosis = experiment: Broth dilution MIC, antifungal activity; conditions: Lodderomyces parapsilosis; strain MY 1010; 18 hours, 29° C.
Procedure: as §2

CCCCCCCCCC1OC1/C=C/C(=O)C1(O)C(=O)NC(CO)C1O (stereo not drawn) [Compound 1]
antibacterial activity (bacterial strains): antifungal and antibacterial activity | antifungal activity (fungi): antifungal and antibacterial activity | MIC (Entercoccus faecium; strain MB 5571, 28° C.): 2 µg/mL (≈ 5.41 µM) | MIC (Entercoccus faecium; strain MB 5572, 28° C.): 1 µg/mL (≈ 2.71 µM) | MIC (Proteus vulgaris): > 500 µg/mL | MIC (Staphylococcus aureus; strain MB 108, 28° C.): 0.5 µg/mL (≈ 1.35 µM) | MIC (Staphylococcus aureus; strain MB 2865, 28° C.): 0.5 µg/mL (≈ 1.35 µM) | MIC (Staphylococcus aureus; strain MB 2949, 28° C.): 125 to 250 µg/mL (≈ 338 to 677 µM) | MIC (Aspergillus fumigatus): 37 µg/mL (≈ 100 µM) | MIC (Candida krusei): > 37 µg/mL | MIC (Cryptococcus neoformans; strain MY 2061, 29° C.): 7.4 µg/mL (≈ 20 µM) | MIC (Cryptococcus neoformans; strain MY 2062, 29° C.): 0.02 µg/mL (≈ 0.0541 µM) | MIC (Candida tropicalis): 7.4 µg/mL (≈ 20 µM) | MIC (Candida albicans): 7.4 µg/mL (≈ 20 µM) | MIC (Candida parapsilosis): 1.5 µg/mL (≈ 4.06 µM)
